The numbers were not newly measured in paper PMC7709506 (ESMO Open, 2020), which cites them from elsewhere.

SMILES strings stand for the structures. pIC50: −log10 of the molar value.

For this data set, the system named is UGT1A1. To be noted: human liver microsomes; cited from earlier work. On the technique in general: Liver microsomes are a subcellular fraction often used to study metabolism.

As for `Cn1cc(-c2ccc3c(c2)ncn3-c2cc(NS(=O)(=O)C3CC3)cc(-c3ccc(F)cc3F)c2)cn1` [ODM-203], the pIC50 was 7.00.

In general, pIC50 refers to −log10 of the IC50, conventionally taken in molar units.
